{
  "source": "patent US9790233B2",
  "about": "“Compositions and methods of modulating 15-PGDH activity” (CASE WESTERN RESERVE UNIVERSITY, priority 2012, dated 2017)",
  "key": {"[1]": {"test_system": "A549 cells", "assay": "PGE2 levels in the medium of IL1-beta stimulated A549 cells;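 note: PGE2 in the collected culture medium quantified by enzyme immunoassay (ELISA), with data drawn from three independent experiments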", "format": "cell-based"}, "[2]": {"test_system": "15-PGDH mRNA", "assay": "15-PGDH mRNA levels by real-time PCR", "format": "cell-based"}, "[3]": {"test_system": "bone marrow", "assay": "Bone marrow analysis of treated C57BL/6J mice", "format": "in vivo", "conditions": "IP 5 mg/kg or 20 mg/kg", "text": "FIGS. […] Experimental conditions are noted on the figure."}, "[4]": {"assay": "Survival following acetaminophen (Tylenol) overdose", "format": "in vivo, C57BL/6J mice"}},
  "data": [
    {"smiles": "CCCC[S+]([O-])c1sc2nc(-c3cccs3)cc(-c3ccccc3)c2c1N", "note": "(centres unmarked) [SW033291, 2-(butylsulfinyl)-4-phenyl-6-(thiophen-2-yl)thieno[2,3-b]pyridin-3-amine]", "values": [
      {"measurement": "rank of PGE2 level in the medium", "setting": "[1]; 100 nM drug, FIG. 44", "result": "next highest level of PGE2"},
      {"measurement": "PGE2 levels in medium", "setting": "[1]; IL1-beta 23 hours, compound added for the last 5 hours", "result": "clear inhibition of 15-PGDH activity"},
      {"measurement": "15-PGDH mRNA levels (real-time PCR)", "setting": "[2]; V503 cells", "result": "slight increase in 15-PGDH mRNA"},
      {"measurement": "15-PGDH mRNA levels (real-time PCR)", "setting": "[2]; treated colon cancer cell lines", "result": "do not in general alter 15-PGDH mRNA levels"},
      {"measurement": "percent of SKL cells", "setting": "[3]", "result": "unchanged"},
      {"measurement": "number of mice surviving", "setting": "[4]; 1 dose/daily, first dose immediately after Tylenol, 24 hrs", "result": 6},
      {"measurement": "number of mice surviving", "setting": "[4]; 2 dose/daily, first dose immediately after Tylenol, 24 hrs", "result": 6},
      {"measurement": "number of mice surviving", "setting": "[4]; 2 dose/daily, first dose immediately after Tylenol, 48 hrs", "result": 3},
      {"measurement": "number of mice surviving", "setting": "[4]; 2 dose/daily, first dose immediately after Tylenol, 64 hrs", "result": 3},
      {"measurement": "number of mice surviving", "setting": "[4]; 2 dose/daily, first dose immediately after Tylenol, 72 hrs", "result": 3},
      {"measurement": "number of mice surviving", "setting": "[4]; 2 dose/daily, first dose immediately after Tylenol, 88 hr", "result": 3},
      {"measurement": "number of mice surviving", "setting": "[4]; 2 dose/daily, first dose immediately after Tylenol, 96 hr", "result": 3},
      {"measurement": "number of mice surviving", "setting": "[4]; 2 dose/daily, first dose immediately after Tylenol, 112 hr", "result": 3},
      {"measurement": "number of mice surviving", "setting": "[4]; 2 dose/daily, first dose immediately after Tylenol, 120 hr", "result": 3},
      {"measurement": "number of mice surviving", "setting": "[4]; acetaminophen 600 mg/kg, 5 mg/kg 1 dose/daily, first dose immediately after Tylenol injection, 16 hr", "result": 6},
      {"measurement": "number of mice surviving", "setting": "[4]; acetaminophen 600 mg/kg, 5 mg/kg 2 dose/daily, first dose immediately after Tylenol injection, 16 hr", "result": 6},
      {"measurement": "Survival (number of mice)", "setting": "[4]; acetaminophen 600 mg/kg, 5 mg/kg bid beginning 3 hours prior to acetaminophen, 6 doses, cohort of 6, 16 hr", "result": 6},
      {"measurement": "Survival (number of mice)", "setting": "[4]; acetaminophen 600 mg/kg, 5 mg/kg bid beginning 48 hours prior to acetaminophen, 9 doses, cohort of 12, 16 hr", "result": 12},
      {"measurement": "mice survived at 120 hours", "setting": "[4]; bid beginning 3 hours prior to acetaminophen", "result": "3 of 6"},
      {"measurement": "Survival (number of mice)", "setting": "[4]; bid beginning 3 hours prior to acetaminophen, 24 hrs", "result": 5},
      {"measurement": "Survival (number of mice)", "setting": "[4]; bid beginning 3 hours prior to acetaminophen, 48 hrs", "result": 3},
      {"measurement": "Survival (number of mice)", "setting": "[4]; bid beginning 3 hours prior to acetaminophen, 64 hrs", "result": 3},
      {"measurement": "Survival (number of mice)", "setting": "[4]; bid beginning 3 hours prior to acetaminophen, 72 hrs", "result": 3},
      {"measurement": "Survival (number of mice)", "setting": "[4]; bid beginning 3 hours prior to acetaminophen, 88 hr", "result": 3},
      {"measurement": "Survival (number of mice)", "setting": "[4]; bid beginning 3 hours prior to acetaminophen, 96 hr", "result": 3},
      {"measurement": "Survival (number of mice)", "setting": "[4]; bid beginning 3 hours prior to acetaminophen, 112 hr", "result": 3},
      {"measurement": "Survival (number of mice)", "setting": "[4]; bid beginning 3 hours prior to acetaminophen, 120 hr", "result": 3},
      {"measurement": "mice survived at 120 hours", "setting": "[4]; bid beginning 48 hours prior to acetaminophen", "result": "10 of 12"},
      {"measurement": "Survival (number of mice)", "setting": "[4]; bid beginning 48 hours prior to acetaminophen, 24 hrs", "result": 12},
      {"measurement": "Survival (number of mice)", "setting": "[4]; bid beginning 48 hours prior to acetaminophen, 40 hrs", "result": 11},
      {"measurement": "Survival (number of mice)", "setting": "[4]; bid beginning 48 hours prior to acetaminophen, 48 hrs", "result": 10},
      {"measurement": "Survival (number of mice)", "setting": "[4]; bid beginning 48 hours prior to acetaminophen, 64 hrs", "result": 10},
      {"measurement": "Survival (number of mice)", "setting": "[4]; bid beginning 48 hours prior to acetaminophen, 72 hrs", "result": 10},
      {"measurement": "Survival (number of mice)", "setting": "[4]; bid beginning 48 hours prior to acetaminophen, 88 hr", "result": 10},
      {"measurement": "Survival (number of mice)", "setting": "[4]; bid beginning 48 hours prior to acetaminophen, 96 hr", "result": 10},
      {"measurement": "Survival (number of mice)", "setting": "[4]; bid beginning 48 hours prior to acetaminophen, 112 hr", "result": 10},
      {"measurement": "Survival (number of mice)", "setting": "[4]; bid beginning 48 hours prior to acetaminophen, 120 hr", "result": 10},
      {"measurement": "survival versus control mice", "setting": "[4]; dosing begun immediately following acetaminophen, once or twice daily", "result": "No difference"}
    ]}
  ]
}
